According to US20100125073A1, “BENZOFURAN AND BENZOTHIOPHENE DERIVATIVES USEFUL IN THE TREATMENT OF CANCERS OF THE CENTRAL NERVOUS SYSTEM” (priority 2006, published 2010):
One block for each molecule: values may come before it.

Experiments:
[1] = system: SK-N-DZ (human neuroblastoma) cells; experiment: Proliferation assay (CellTiter-Glo), SK-N-DZ; assay type: cell-based; details: 72 after compound addition, n = 4
Description: (§1) SK-N-DZ (human neuroblastoma; ATCC# CRL-2149) or U118 MG (human glioblastoma/astrocytoma; ATCC# HTB-15) or U87 MG (human glioma; ATCC# HTB-14) or H4 (human neuroglioma; ATCC# HTB 178) cells are cultivated under standard conditions (RPMI 1640/Glutamax 2 mM/glucose 2 g/l/SoBicarbonate 2 g/1/10% FCS; 37° C. in 5% CO2 in a humid incubator). Cells are suspended using Accutase (PAA) and seeded at 1000 cells/Well in 100 μL medium/well in a 96-well plate (Greiner Kat. Nr. 655073). The test compound is added 24 Stunden after seeding. Commercial assays (CellTiter-Glo® Luminescent Cell Viability Assay; Promega Kat. Nr. G7571) are used 72 later according to the manufacturers instructions. IC50 is calculated using GraphPad Prism.
(§2) Compounds are solved in 100% DMSO and diluted 1:20 in medium before used diluted 1:10 in the test.

[2] = system: U118 MG (human glioblastoma/astrocytoma) cells; experiment: Proliferation assay (CellTiter-Glo), U118 MG; assay type: cell-based; details: U-118-MG, n = 4
Description: as §1, §2

[3] = system: U87 MG (human glioma) cells; experiment: Proliferation assay (CellTiter-Glo), U87 MG; assay type: cell-based; details: U-87 MG, n = 2
Description: as §1, §2

[4] = system: H4 (human neuroglioma) cells; experiment: Proliferation assay (CellTiter-Glo), H4; assay type: cell-based; details: n = 1
Description: as §1, §2

[5] = Crossing blood brain barrier in mice; assay type: in vivo, Male Ncr nude mice; details: 200 mg/kg orally for 14 days
Description: Male Ncr nude mice (n=3/time point) is treated for 14 days orally with a therapeutically relevant dose of example 153 (200 mg/kg) or a vehicle control (time: Oh). Daily treatment with a high dose like this is necessary to effectively treat subcutaneously transplanted tumors in these mice. After treatment, mice are sacrified at indicated time points, blood and brain tissue is removed and analysed. The method is as described above in example 2 under “Stability in rat and human plasma”. […] Mean brain concentrations are indicated as absolute concentration and relative to plasma concentration at similar time points (from the same experiment) in the table below.

[6] = Solubility in aqueous 5% dextrose; assay type: physicochemical; details: for solubility thermodynamic at 24 h: saline or isotonic, thermodynamic from solid, 5% Dextrose
Description: The test compound is dissolved in an aqueous solution of 5% dextrose adjusted to the respective pH with 1n HCl. After shaking at room temperature for 24 h the probe is subjected to an ultra centrifugation process at 224000 g for 30 min. DMSO is added to the supernatant and the content of test compound is determined and quantified by HPLC employing a two point calibration curve of the test compound in DMSO.
HPLC Method: Agilent 1100 with DAD (G1315A), quat. Pump (G1311A), Autosampler CTC HTS PAL, Degaser (G1322A) and column thermostate (G1316A); Column: Zorbax Extend-C18 3.5μ; temperature: 40° C.; Eluent A: Water+5 ml Perchloric acid/1; Eluent B: Acetonitrile; flow rate: 0.7 mL/min; Gradient: 0-0.5 min 98% A, 2% B; Rampe: 0.5-4.5 min 10%, A 90% B; 4.5-6 min 10% A, 90% B; Rampe: 6.5-6.7 min 98% A, 2% B; 6.7-7.5 min 98% A, 2% B.

[7] = Stability in buffer at different pH-values; assay type: physicochemical
Description: To determine the stability of test compounds at different pH-values 0.3 mg of the dry compound is dissolved in 0.5 ml of acetonitrile and the sample is sonified for 10 seconds. Then buffer solutions are added and the samples are sonified again.
pH 2: 0.03 M citric acid/0.0082 M hydrochloric acid/0.061 M sodium chloride pH 3: 0.04 M citric acid/0.021 M sodium hydroxide/0.06 M sodium chloride pH 4: 0.056 M citric acid/0.068 M sodium hydroxide/0.044 M Sodium chloride pH 5: 0.096 M citric acid/0.2 M sodium hydroxide pH 7: 0.029 M sodium hydroxide solution/0.05 M potassium dihydrogen phosphate pH 10: 0.013 M sodium tetraborate/0.018 M sodium hydroxide
The test compound concentrations in solution is analyzed by HPLC every hour during 24 hours at 37° C.
Agilent 1100 with DAD (G1314A), binary pump (G1312A), autosampler (G1329A), column thermostat (G1316A), thermostat (G1330A), Column: Kromasil 100 C18/60×2.1 mm/3.5 μm, Column temperature: 37° C., Eluent A: Water+5 ml perchloric acid/1, Eluent B: Acetonitrile, Gradient: 0-1.0 min 98% A, 2% B; 1.0-9.0 min 2% A, 98% B; 9.0-13.0 min 2% A, 98% B; 13.0-13.5 min 98% A, 2% B; 13.5-15.0 98% A, 2% B, Flow rate: 0.75 ml/min, Detection: 210 nm

[8] = Stability in rat plasma; assay type: in vitro ADME; details: within 1 hour
[9] = Stability in human plasma; assay type: in vitro ADME; details: within 1 hour

IC50 [1]: 110 nM | IC50 [2]: 120 nM | IC50 [3]: 320 nM | IC50 [4]: 170 nM | crossing of the blood brain barrier [5]: crosses the blood brain barrier | brain concentration % of Plasma concentration ([5]; 0.167 h): 9-19% | brain concentration % of Plasma concentration ([5]; 0.5 h): 17-18% | brain concentration % of Plasma concentration ([5]; 1.5 h): 12-90% | concentration at 0.167 h ([5]; male, Ncr nude, mouse, brain, po, 0.167 h): 600 ng/mL | concentration at 0.5 h ([5]; male, Ncr nude, mouse, brain, po, 0.5 h): 1400 ng/mL | concentration at 1.5 h ([5]; male, Ncr nude, mouse, brain, po, 1.5 h): 1000 ng/mL
Compound: CS(=O)(=O)NCc1cccc(-c2ccc3c(N)c(C(=O)c4ccc(Cl)cc4Cl)oc3c2)c1 [Example 153, N-{3-[3-amino-2-(2,4-dichlorobenzoyl)-1-benzofuran-6-yl]benzyl}methanesulfonamide]

degradation during solubility determination ([6]; 5% dextrose, 24 h room temperature): no degradation has been observed | solubility thermodynamic at 24 h ([6]; aqueous 5% dextrose solution, pH 3, 24 h room temperature): 360 µg/mL | solubility thermodynamic at 24 h ([6]; aqueous 5% dextrose solution, pH 4, 24 h room temperature): 350 µg/mL | Amount of remaining compound ([7]; buffer pH 2, after 24 h at 37° C.): 100% | Amount of remaining compound ([7]; buffer pH 3, after 24 h at 37° C.): 100% | Amount of remaining compound ([7]; buffer pH 4, after 24 h at 37° C.): 94% | Amount of remaining compound ([7]; buffer pH 5, after 24 h at 37° C.): 58% | Amount of remaining compound ([7]; buffer pH 7, after 24 h at 37° C.): 4% | Amount of remaining compound ([7]; buffer pH 10, after 24 h at 37° C.): 2% | cleaved in plasma [8]: more than 90% | cleaved in plasma [9]: more than 90%
Compound: CC(C)[C@H](N)C(=O)N(Cc1cccc(-c2ccc3c(N)c(C(=O)c4ccc(Cl)cc4Cl)oc3c2)c1)S(C)(=O)=O.Cl [Example 366, N-{3-[3-amino-2-(2,4-dichlorobenzoyl)-1-benzofuran-6-yl]benzyl}-N-(methylsulfonyl)-L-valinamide, hydrochloride]

solubility at 24 h ([6]; aqueous 5% dextrose solution, parent compound, pH not stated): < 0.1 µg/mL
Compound: CS(=O)(=O)NCc1cccc(-c2ccc3c(N)c(C(=O)c4ccc(Cl)cc4Cl)oc3c2)c1 [N-{3-[3-amino-2-(2,4-dichlorobenzoyl)-1-benzofuran-6-yl]benzyl}methanesulfonamide]
